Results as given in patent US20150290105A1, “COMPOSITION COMPRISING SYRINGARESINOL FOR IMPROVING THE SKIN” (AMOREPACIFIC CORPORATION, priority 2011, published 2015).

Tests used:
[1] = tested on: Melanocytes (Mel-Ab cells); test: Melanin production inhibiting effect in mouse melanocytes; type: cell-based; details: Mus musculus, Mel-Ab; read-out: Melanin production inhibiting rate (%)
Protocol: The melanin production inhibiting effect of the syringaresinol obtained in Example was evaluated using mouse melanocytes. First, melanocytes (Mel-Ab cells) derived from C57BL/6 (treated with Dooley et al.'s method) were cultured under the condition of 37° C. and 5% CO2 in Dulbecco's modified Eagle's medium (DMEM) containing 10% fetal bovine serum, 100 nM 12-O-tetradecanoylphorbol-13-acetate and 1 nM cholera toxin. […] After removing the culture medium and washing with PBS, the cells were dissolved with 1 N sodium hydroxide and absorbance was measured at 400 nm. Melanin production inhibiting rate (%) was calculated according to Equation 2 from the measured absorbance. Melanin production inhibiting rate (%)=100−(Absorbance of test substance) /(Absorbance of control substance)×100 [Equation 2]

[2] = Skin whitening effect when applied to UVB-tanned human skin; type: in vivo; details: 1% applied on upper arm after UVB, 10 weeks, 12 male subjects
Protocol: First, opaque tapes having holes of 1.5 cm in diameter were attached on the upper arms of 12 healthy male subjects and UVB of about 1.5-2 times the minimal erythemal dose was irradiated to each subject to induce skin tanning. […] Then, the change was monitored for 10 weeks. The color of the skin was measured with 1-week interval using the CR2002 colorimeter (Minolta, Japan). The change in skin color (ΔL*) between the time when the test substance was applied and the time when the test was completed was calculated according to Equation 3. Skin whitening effect is evaluated by comparing the ΔL* of the part where the test substance was applied with that of the control part. A ΔL* value of about 2 can be interpreted as distinct skin whitening effect and one about 1.5 can be evaluated as positive skin whitening effect.
ΔL*=(L* when test was completed)−(L* when test substance was applied) [Equation 3]

[3] = tested on: mushroom-derived tyrosinase; test: Tyrosinase activity inhibiting effect (dopachrome formation); type: biochemical; details: 10 ppm, 37° C. 10 minutes
Protocol: The reaction solution was prepared by adding 500 μL of 0.1 M PBS, 15 μg of L-tyrosine and 50 μL of syringaresinol and then adding distilled water to make the final volume 1500 μL. A solution prepared through the same procedure but with Kojic acid instead of syringaresinol was used as a positive control. The concentration of all the samples used in experiment was set to 10 ppm. After adding 10 units of mushroom-derived tyrosinase to the reaction solution, followed by reaction at 37° C. for 10 minutes, the reaction was stopped by quickly transferring onto ice for 5 minutes. The synthesis rate of dopachrome produced was determined by measuring absorbance at 475 nm and tyrosinase activity inhibiting rate (%) was calculated therefrom.

[4] = Skin whitening effect when orally administered, UV-irradiated brown guinea pig; type: in vivo; details: 1% in feed, 5 weeks, oral
Protocol: Minimal erythemal dose was measured after irradiating UV to guinea pigs. After grouping the guinea pigs with 10 per each group, UV of the minimal erythemal dose was irradiated once a day, for a total of 3 times. The guinea pigs were allowed free access to feed for 5 weeks. The feed contained 1% syringaresinol or 1% vitamin C (Vit C) as a positive control. Skin pigmentation was measure using a colorimeter in substantially the same manner as in Test Example 6.

For Oc1ccc(O)cc1 [Hydroquinone, hydroquinone, reference compound], which inhibition at 10 ppm [1] is on record?
The inhibition at 10 ppm was 58.9%.

And the “Change in skin brightness (ΔL*)” value [2]?
Its value is 1.71 ± 0.31.

Which “Tyrosinase activity inhibiting rate (%)” value [3] does the source give for O=c1cc(CO)occ1O [Kojic acid, reference compound] here?
Its value is 67.8%.

With O=C1O[C@H]([C@@H](O)CO)C(O)=C1O [Vitamin C, vitamin C, reference compound] as the compound, how does the “Skin color brightness (ΔL*)” value [4] read?
The value was 1.48 ± 0.71.
